# According to patent US20250163104A1, “MACROCYCLIC IMMUNOMODULATORS” (priority 2021, published 2025):
# pIC50: −log10 of the molar value. Where a SMILES comes first, the peptide text is derived from it. Bridges are numbered along the chain shown (N, C = ends). [ ]: non-standard residue; d: D form. The star is where a group is joined. Phe(3-CF3) = N[C@@H](Cc1cccc(C(F)(F)F)c1)C(=O)O; Phe(4-COOH) = N[C@@H](Cc1ccc(C(=O)O)cc1)C(=O)O; Bip = N[C@@H](Cc1ccc(-c2ccccc2)cc1)C(=O)O; 4Pal = N[C@@H](Cc1ccncc1)C(=O)O; Cha = N[C@@H](CC1CCCCC1)C(=O)O; dNle = CCCC[C@@H](N)C(=O)O; Carboxymethyl = O=C(O)C*; Orn = NCCC[C@H](N)C(=O)O; Dab = NCC[C@H](N)C(=O)O; Dap = NC[C@H](N)C(=O)O
# Biological target: T1, human PD-1 / PD-L1-Ig binding on Jurkat cell line over-expressing human PD-1 (Jurkat-PD-1) (Homo sapiens, UniProt Q15116)
# T1 construct: expressed in transfected cells; host or cells: Jurkat
# Experiment: Jurkat-PD-1 Cell Binding High-Content Screening Assay (CBA)
# Format: cell-based
# Conditions: Jurkat-PD-1 cells, PE-labeled PD-L1-Ig 20 nM final; read-out: Jurkat HPD1_PDL1 IC50
# Outline: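 Jurkat cells over-expressing human PD-1, in DMEM/10% FCS, pre-incubated with compound 2 h at 37° C. PE-labeled human PD-L1-Ig (20 nM final) added for 1 h; cells fixed in paraformaldehyde with Hoechst 33342 nuclear stain, washed, and bound fluorescence quantified by high-content imaging.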
# T1 sequence (Q15116 25-288): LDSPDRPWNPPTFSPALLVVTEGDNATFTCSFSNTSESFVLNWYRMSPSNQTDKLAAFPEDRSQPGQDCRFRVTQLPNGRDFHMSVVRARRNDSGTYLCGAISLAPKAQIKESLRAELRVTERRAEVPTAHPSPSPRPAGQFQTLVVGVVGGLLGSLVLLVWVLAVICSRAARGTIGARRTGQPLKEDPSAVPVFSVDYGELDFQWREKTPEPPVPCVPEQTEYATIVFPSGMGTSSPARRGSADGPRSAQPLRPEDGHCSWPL
row,SMILES,pIC50
1,CC(C)[C@@H]1NC(=O)[C@H](Cc2c[nH]c3ccccc23)NC(=O)[C@H](CC(=O)O)NC(=O)[C@H](Cc2ccc(C(=O)O)cc2)NC(=O)[C@H](Cc2ccc(OCC(=O)O)cc2)NC(=O)CSC[C@@H](C(=O)N[C@@H](C)C(N)=O)NC(=O)[C@H]([C@@H](C)O)NC(=O)[C@H](C(C)C)NC(=O)[C@H](CC2CCCCC2)NC(=O)[C@H](CCN)NC(=O)[C@@H](Cc2ccc(O)cc2)NC(=O)[C@H](CCCN)NC(=O)[C@H](CCC(=O)O)NC(=O)[C@H](Cc2ccc(-c3ccccc3)cc2)NC1=O [Compound 1449] ({CH2CO}-Y(Carboxymethyl)[Phe(4-COOH)]DWV[Bip]E[Orn][dY][Dab][Cha]VTCA-NH2; thioether N-14),7.48
2,CCCC[C@H]1NC(=O)[C@H](CCCN)NC(=O)[C@H](CCC(=O)O)NC(=O)[C@H](Cc2ccc(-c3ccccc3)cc2)NC(=O)[C@H](C(C)C)NC(=O)[C@H](Cc2c[nH]c3ccccc23)NC(=O)[C@H](CC(=O)O)NC(=O)[C@H](Cc2ccc(C(=O)O)cc2)NC(=O)[C@H](Cc2ccncc2)NC(=O)CSC[C@@H](C(=O)N[C@@H](C)C(N)=O)NC(=O)[C@H]([C@@H](C)O)NC(=O)[C@H](C(C)C)NC(=O)[C@H](CC2CCCCC2)NC(=O)[C@H](CCN)NC1=O [Compound 1450],8.12
3,CCCC[C@H]1NC(=O)[C@H](CCCN)NC(=O)[C@H](CCC(=O)O)NC(=O)[C@H](Cc2ccc(-c3ccccc3)cc2)NC(=O)[C@H](C(C)C)NC(=O)[C@H](Cc2c[nH]c3ccccc23)NC(=O)[C@H](CC(=O)O)NC(=O)[C@H](Cc2ccncc2)NC(=O)[C@H](Cc2ccc(OCC(=O)O)cc2)NC(=O)CSC[C@@H](C(=O)N[C@@H](C)C(N)=O)NC(=O)[C@H]([C@@H](C)O)NC(=O)[C@H](C(C)C)NC(=O)[C@H](CC2CCCCC2)NC(=O)[C@H](CCN)NC1=O [Compound 1451] ({CH2CO}-Y(Carboxymethyl)[4Pal]DWV[Bip]E[Orn][dNle][Dab][Cha]VTCA-NH2; thioether N-14),7.99
4,CCCC[C@H]1NC(=O)[C@H](CCCN)NC(=O)[C@H](CCC(=O)O)NC(=O)[C@H](Cc2ccc(-c3ccccc3)cc2)NC(=O)[C@H](C(C)C)NC(=O)[C@H](Cc2c[nH]c3ccccc23)NC(=O)[C@H](CC(=O)O)NC(=O)[C@H](Cc2ccncc2)NC(=O)[C@H](CN)NC(=O)CSC[C@@H](C(=O)N[C@@H](C)C(N)=O)NC(=O)[C@H]([C@@H](C)O)NC(=O)[C@H](C(C)C)NC(=O)[C@H](CC2CCCCC2)NC(=O)[C@H](CCN)NC1=O [Compound 1452] ({CH2CO}-[Dap][4Pal]DWV[Bip]E[Orn][dNle][Dab][Cha]VTCA-NH2; thioether N-14),7.60
5,CCCC[C@H]1NC(=O)[C@H](CCCN)NC(=O)[C@H](CCC(=O)O)NC(=O)[C@H](Cc2ccc(-c3ccccc3)cc2)NC(=O)[C@H](C(C)C)NC(=O)[C@H](Cc2c[nH]c3ccccc23)NC(=O)[C@H](CC(=O)O)NC(=O)[C@H](Cc2ccc(O)cc2)NC(=O)[C@H](CC(N)=O)NC(=O)CSC[C@@H](C(=O)N[C@@H](C)C(N)=O)NC(=O)[C@H]([C@@H](C)O)NC(=O)[C@H](C(C)C)NC(=O)[C@H](CC2CCCCC2)NC(=O)[C@H](CCN)NC1=O [Compound 1453] ({CH2CO}-NYDWV[Bip]E[Orn][dNle][Dab][Cha]VTCA-NH2; thioether N-14),8.01
6,CCCC[C@H]1NC(=O)[C@H](CCCN)NC(=O)[C@H](CCC(=O)O)NC(=O)[C@H](Cc2ccc(-c3ccccc3)cc2)NC(=O)[C@H](C(C)C)NC(=O)[C@H](Cc2c[nH]c3ccccc23)NC(=O)[C@H](CC(=O)O)NC(=O)[C@H](Cc2ccc(OCC(=O)O)cc2)NC(=O)[C@H](CN)NC(=O)CSC[C@@H](C(=O)N[C@@H](C)C(N)=O)NC(=O)[C@H]([C@@H](C)O)NC(=O)[C@H](C(C)C)NC(=O)[C@H](CC2CCCCC2)NC(=O)[C@H](CCN)NC1=O [Compound 1454],7.92
7,CCCC[C@H]1NC(=O)[C@H](CCCN)NC(=O)[C@H](CCC(=O)O)NC(=O)[C@H](Cc2ccc(-c3ccccc3)cc2)NC(=O)[C@H](C(C)C)NC(=O)[C@H](Cc2c[nH]c3ccccc23)NC(=O)[C@H](CC(=O)O)NC(=O)[C@H](Cc2ccc(C(=O)O)cc2)NC(=O)[C@H](Cc2ccc(OCC(=O)O)cc2)NC(=O)CSC[C@@H](C(=O)N[C@@H](C)C(N)=O)NC(=O)[C@H]([C@@H](C)O)NC(=O)[C@H](C(C)C)NC(=O)[C@H](CC2CCCCC2)NC(=O)[C@H](CCN)NC1=O [Compound 1455],8.08
8,CC(C)C[C@H]1NC(=O)[C@H](CN)NC(=O)[C@H](C(C)C)NC(=O)[C@H](Cc2ccc(-c3ccccc3)cc2)NC(=O)[C@H](C(C)C)NC(=O)[C@H](Cc2c[nH]c3ccccc23)NC(=O)[C@H](CC(=O)O)NC(=O)[C@H](Cc2ccncc2)NC(=O)[C@H](Cc2ccc(OCC(=O)O)cc2)NC(=O)CSC[C@@H](C(=O)NCC(N)=O)NC(=O)[C@H](CO)NC(=O)[C@H](C(C)C)NC(=O)[C@H](CC2CCCCC2)NC(=O)[C@H](CC(N)=O)NC1=O [Compound 1456] ({CH2CO}-Y(Carboxymethyl)[4Pal]DWV[Bip]V[Dap][dL]N[Cha]VSCG-NH2; thioether N-14),8.21
9,CC(C)C[C@H]1NC(=O)[C@H](CCCN)NC(=O)[C@H](CCC(=O)O)NC(=O)[C@H](Cc2ccc(-c3ccccc3)cc2)NC(=O)[C@H](C(C)C)NC(=O)[C@H](Cc2cccc(C(F)(F)F)c2)NC(=O)[C@H](CC(=O)O)NC(=O)[C@H](Cc2ccc(O)cc2)NC(=O)[C@H](CC(N)=O)NC(=O)CSC[C@@H](C(=O)N[C@@H](C)C(N)=O)NC(=O)[C@H]([C@@H](C)O)NC(=O)[C@H](C(C)C)NC(=O)[C@H](CC2CCCCC2)NC(=O)[C@H](CCN)NC1=O [Compound 1457] ({CH2CO}-NYD[Phe(3-CF3)]V[Bip]E[Orn][dL][Dab][Cha]VTCA-NH2; thioether N-14),7.70
10,CC(C)C[C@H]1NC(=O)[C@H](CCCN)NC(=O)[C@H](CCC(=O)O)NC(=O)[C@H](Cc2ccc(-c3ccccc3)cc2)NC(=O)[C@H](C(C)C)NC(=O)[C@H](Cc2cccc(C(F)(F)F)c2)NC(=O)[C@H](CC(=O)O)NC(=O)[C@H](Cc2ccc(OCC(=O)O)cc2)NC(=O)[C@H](CN)NC(=O)CSC[C@@H](C(=O)N[C@@H](C)C(N)=O)NC(=O)[C@H]([C@@H](C)O)NC(=O)[C@H](C(C)C)NC(=O)[C@H](CC2CCCCC2)NC(=O)[C@H](CCN)NC1=O [Compound 1458],7.75
11,CC(C)C[C@H]1NC(=O)[C@H](CCCN)NC(=O)[C@H](CCC(=O)O)NC(=O)[C@H](Cc2ccc(-c3ccccc3)cc2)NC(=O)[C@H](C(C)C)NC(=O)[C@H](Cc2cccc(C(F)(F)F)c2)NC(=O)[C@H](CC(=O)O)NC(=O)[C@H](Cc2ccncc2)NC(=O)[C@H](CN)NC(=O)CSC[C@@H](C(=O)N[C@@H](C)C(N)=O)NC(=O)[C@H]([C@@H](C)O)NC(=O)[C@H](C(C)C)NC(=O)[C@H](CC2CCCCC2)NC(=O)[C@H](CCN)NC1=O [Compound 1459] ({CH2CO}-[Dap][4Pal]D[Phe(3-CF3)]V[Bip]E[Orn][dL][Dab][Cha]VTCA-NH2; thioether N-14),7.75

# Results, then the molecule that gave them:
row,pIC50,SMILES
1,7.95,CC(C)C[C@H]1NC(=O)[C@H](CCCN)NC(=O)[C@H](CCC(=O)O)NC(=O)[C@H](Cc2ccc(-c3ccccc3)cc2)NC(=O)[C@H](C(C)C)NC(=O)[C@H](Cc2cccc(C(F)(F)F)c2)NC(=O)[C@H](CC(=O)O)NC(=O)[C@H](Cc2ccc(OCC(=O)O)cc2)NC(=O)[C@H](Cc2ccncc2)NC(=O)CSC[C@@H](C(=O)N[C@@H](C)C(N)=O)NC(=O)[C@H]([C@@H](C)O)NC(=O)[C@H](C(C)C)NC(=O)[C@H](CC2CCCCC2)NC(=O)[C@H](CCN)NC1=O [Compound 1460]
2,7.87,CC(C)C[C@H]1NC(=O)[C@H](CCCN)NC(=O)[C@H](CCC(=O)O)NC(=O)[C@H](Cc2ccc(-c3ccccc3)cc2)NC(=O)[C@H](C(C)C)NC(=O)[C@H](Cc2cccc(C(F)(F)F)c2)NC(=O)[C@H](CC(=O)O)NC(=O)[C@H](Cc2ccc(C(=O)O)cc2)NC(=O)[C@H](Cc2ccc(OCC(=O)O)cc2)NC(=O)CSC[C@@H](C(=O)N[C@@H](C)C(N)=O)NC(=O)[C@H]([C@@H](C)O)NC(=O)[C@H](C(C)C)NC(=O)[C@H](CC2CCCCC2)NC(=O)[C@H](CCN)NC1=O [Compound 1461]
3,7.77,CC(C)C[C@H]1NC(=O)[C@H](CCCN)NC(=O)[C@H](CCC(=O)O)NC(=O)[C@H](Cc2ccc(-c3ccccc3)cc2)NC(=O)[C@H](C(C)C)NC(=O)[C@H](Cc2cccc(C(F)(F)F)c2)NC(=O)[C@H](CC(=O)O)NC(=O)[C@H](Cc2ccncc2)NC(=O)[C@H](Cc2ccc(OCC(=O)O)cc2)NC(=O)CSC[C@@H](C(=O)N[C@@H](C)C(N)=O)NC(=O)[C@H]([C@@H](C)O)NC(=O)[C@H](C(C)C)NC(=O)[C@H](CC2CCCCC2)NC(=O)[C@H](CCN)NC1=O [Compound 1462] ({CH2CO}-Y(Carboxymethyl)[4Pal]D[Phe(3-CF3)]V[Bip]E[Orn][dL][Dab][Cha]VTCA-NH2; thioether N-14)
4,7.61,CC(C)C[C@H]1NC(=O)[C@H](CCCN)NC(=O)[C@H](CCC(=O)O)NC(=O)[C@H](Cc2ccc(-c3ccccc3)cc2)NC(=O)[C@H](C(C)C)NC(=O)[C@H](Cc2cccc(C(F)(F)F)c2)NC(=O)[C@H](CC(=O)O)NC(=O)[C@H](Cc2ccncc2)NC(=O)[C@H](Cc2ccccc2)NC(=O)CSC[C@@H](C(=O)N[C@@H](C)C(N)=O)NC(=O)[C@H]([C@@H](C)O)NC(=O)[C@H](C(C)C)NC(=O)[C@H](CC2CCCCC2)NC(=O)[C@H](CCN)NC1=O [Compound 1463] ({CH2CO}-F[4Pal]D[Phe(3-CF3)]V[Bip]E[Orn][dL][Dab][Cha]VTCA-NH2; thioether N-14)
5,7.59,CC(C)C[C@H]1NC(=O)[C@H](CCCN)NC(=O)[C@H](CCC(=O)O)NC(=O)[C@H](Cc2ccc(-c3ccccc3)cc2)NC(=O)[C@H](C(C)C)NC(=O)[C@H](Cc2cccc(C(F)(F)F)c2)NC(=O)[C@H](CC(=O)O)NC(=O)[C@H](Cc2ccc(O)cc2)NC(=O)[C@H](Cc2ccncc2)NC(=O)CSC[C@@H](C(=O)N[C@@H](C)C(N)=O)NC(=O)[C@H]([C@@H](C)O)NC(=O)[C@H](C(C)C)NC(=O)[C@H](CC2CCCCC2)NC(=O)[C@H](CCN)NC1=O [Compound 1464]
